# Laboratory results taken from patent publication US20250092032A1, “DEOXYCYTIDINE KINASE INHIBITORS” (CENTRE NATIONAL DE LA RECHERCHE SCIENTIFIQUE, priority 2022, published 2025).
# Columns and labels:
# dCK = target: T1, dCK (Homo sapiens, UniProt P27707, C45S/C59S/C9S/S74E); assay: Affinity assay: Thermal Shift Assay (TSA), dCK thermal stabilization; type: binding; details: dCK protein (C9S, C45S, C59S, S74E); 5 sM of protein, 50 sM of compound, 2% DMSO; mean ± SD
# T1 construct: inferred from HisTrap purification with imidazole elution; made in house; host or cells: Escherichia coli BL21 pRIL
# Description: dCK protein contained three solvent exposed cysteines mutated to serines in order to generate better quality crystals (C9S, C45S, C59S) and a serine mutated to glutamic acid (S74E). The S74E mutation mimics the phosphorylated state of this serine, which favors the open conformation of the enzyme, making it competent for nucleoside binding to evaluate the binding affinity with compounds. BL21 pRIL Escherichia Coli cells were transformed with dCK-plasmid. Cells were grown in LB media containing 100 μg/ml ampicillin and 34 μg/ml chloramphenicol at 18° C. for 20 h after induction with 1 mM IPTG. Cells were re-suspended in 50 mM TRIS, pH 8, 500 mM NaCl, 30 mM imidazole and 10% glycerol buffer containing one EDTA free anti-protease tablet (Roche). After sonication and centrifugation (30,000×g), the supernatant was loaded on a 5 ml HisTrap FF column (GE healthcare) pre-equilibrated with resuspension buffer. Protein was then eluted by re-suspension buffer containing 500 mM imidazole. Protein eluted fractions were mixed and concentrated. Protein was further purified by size exclusion chromatography (superdex 200 16/600, GE healthcare) in 20 mM HEPES, pH 7.5, and 200 mM NaCl before concentration to 30 mg/ml and storage at −80° C.
# Thermal Shift Assay (TSA) experiments were performed in triplicate in 384-well PCR white plates (Thermo Scientific, AB-3384) in the assay buffer containing 20 mM HEPES, pH 7.5 and 200 mM NaCl. Final concentrations were adjusted to 5 sM of protein, 50 sM of compound (final 2% DMSO) and dye diluted to 1:1000, as recommended by manufacturer (Protein Thermal Shift Dye, ThermoFisher Scientific). […] Plates were centrifuged at 1000 rpm for 2 min at 4° C. Thermal melting experiments were carried using a CFX-384 Connect RT-PCR (Bio-Rad). Plates were first equilibrated at 25° C.; then, the plates were heated from 25 to 95° C. by 0.5° C./min steps. Raw fluorescence data were treated, and the melting temperatures (Tm) were calculated using CFX Manager 3.1 software (Bio-Rad). ΔTm represents the difference in Tm between the protein in the presence of compound and the protein alone (both at 2% DMSO). Each experiment was performed at least twice (with technical triplicates) and data are presented as the mean f SD in Table 1.
# [1] = system: CCRF-CEM cell line (T-cell acute lymphoblastic leukemia); assay: Cellular assay: inhibition of CCRF-CEM cell proliferation in presence of dT and dC (CellTiter-Blue); type: cell-based; details: Homo sapiens, read-out: CELLULAR ASSAY IC50 (nM), 200 μM dT and 1 μM dC, 72 hours, mean ± SD
# Description: The cellular assay was set up to assess the ability to inhibit dCK activity in a cellular model. The model was developed with a T-cell acute lymphoblastic leukemia cell line (CCRF-CEM), because of its high dependence on the salvage pathway, thus on dCK activity. Cellular assays were performed to assess the inhibition of cell proliferation under two conditions: i) in the presence of the molecule alone to determine the non-specific effect on cells, independent of dCK (non-specific toxicity) and ii) in the presence of an inhibitor of the De Novo pathway to determine the ability of molecules to inhibit dCK and decrease tumor proliferation (activity on dCK). The inhibitor of the De Novo pathway chosen for the experiments was thymidine (dT), a physiological inhibitor of ribonucleotide reductase which arrests cell proliferation in phase S. The dTTP produced via thymidine kinase from dT acts as a RNR inhibitor by an allosteric regulation of the R1 subunit (FIG. 1). The addition of the nucleoside deoxycytidine (dC) in the medium allows the rescue of cell proliferation by passing only through the salvage pathway, mediated by dCK. Therefore, cell proliferation under these conditions (+dT+dC) is dCK dependent and it is possible to determine the IC50 of dCK inhibitors on the inhibition of cell proliferation. Results are expressed as % cell proliferation relative to the control with DMSO in Table 1.
# CCFR-CEM cells were grown at 37° C. in RPMI 1640 with L-glutamine, supplemented with 100 units/ml penicillin, […] streptomycin, and 10% heat-inactivated foetal calf serum. The experiments were carried out on 96-well plates under the following conditions: 14,000 cells per well, RPMI 1640 culture medium supplemented with 10% heat-inactivated foetal calf serum, 200 sM of dT, 1 sM of dC and a range of dilutions of each molecule ranging from 40 μM to 10 μM, depending on the activity of the molecules (final 0.2% DMSO). Cells were incubated for 72 hours under these different conditions and finally, incubated with 10 μl/well of CellTiter-Blue reagent (Promega) for 4 hours at 37° C. The amount of reduced dye formed by metabolically active cells was quantified by its fluorescence measured at 560 nm (excitation) and 590 nm (emission) in a microplate reader (CLARIOstar, BMG Labtech). A blank well without cells was used as a background control. Each experiment was performed at least three times (with technical triplicates) and data are presented as the mean f SD.
# CCRF-CEM T-ALL cell line = assay: In vivo systemic leukemia model: NSG mice inoculated intravenously with luciferase-expressing CCRF-CEM cells; details: for effect on disease progression / disease burden (bioluminescence): CCRF-CEM leukemia bearing NSG mice, dT 1.5 g/Kg, OR0642 40 mg/Kg (hydrochloride salt) i.p., FIG. 5; for day around which most of the mice died: the two components administered separately, FIG. 8
# Description: Healthy 6 to 9 weeks-old male mice received 0.1×10^6 luciferase transduced-CCRF-CEM cells in the tail vein on Day 0 and were randomly assigned in four groups to receive intraperitoneal injections from Day 3 (Vehicle (n=8), dT (n=8), OR0642 (n=9) and dT+OR0642 (n=9)). […] Doses administered were: dT at 1.5 g/Kg, OR0642 at 40 mg/Kg and dT+OR0642 at 1.5 g/Kg and 40 mg/Kg, respectively. Vehicle was saline solution (0.9% NaCl) supplemented with 10% Kolliphor EL. OR0642 was administered in its hydrochloride salt form. Drug administration protocol is detailed in FIG. 4. Bioluminescence analysis was performed once/week using PhotonIMAGER Optima (Biospace Lab) following addition of endotoxin-free luciferin (30 mg/kg, Promega). Peripheral blood was obtained at Day 21 to determine the fraction of human blasts using flow cytometry. […] Analyses were performed on a Life Science Research Fortessa flow cytometer with DIVA software (BD Biosciences). The number of ALL cells/L peripheral blood was determined by using CountBright beads (Invitrogen, C36950) using described protocol. Daily monitoring of mice for symptoms of disease (ruffled coat, hunched back, weakness and reduced motility) determined the time of killing for injected animals with signs of distress. Kaplan-Meier curves, bioluminescence quantifications and statistical analyses were generated using Prism (Graphpad Software). Bioluminescence data were presented as the mean f SEM. Comparison of bioluminescence data at Day 21 was performed using One way ANOVA Kruskal-Wallis Test and Dunn's Multiple Comparison Test. Comparison of hCD45 populations was performed using One way ANOVA Kruskal-Wallis Test and Dunn's Multiple Comparison Test. Median survival times were compared using Log-Rank (Mantel-Cox) Test.
# T1 sequence (P27707 whole entry C9S/C45S/C59S/S74E): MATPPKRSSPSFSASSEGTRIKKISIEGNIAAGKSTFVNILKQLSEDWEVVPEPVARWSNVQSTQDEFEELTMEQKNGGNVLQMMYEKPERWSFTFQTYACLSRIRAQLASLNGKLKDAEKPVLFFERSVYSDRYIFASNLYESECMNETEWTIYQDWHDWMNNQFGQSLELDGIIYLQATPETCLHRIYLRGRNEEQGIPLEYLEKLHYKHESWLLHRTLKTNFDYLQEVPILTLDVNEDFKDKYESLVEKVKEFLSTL
AFFINITY ASSAY +ΔTm (°) (dCK),IC50 [1],SMILES,effect on disease progression / disease burden (bioluminescence) (CCRF-CEM T-ALL cell line),day around which most of the mice died (CCRF-CEM T-ALL cell line)
19.2 ± 0.6 °,31 ± 27 nM,"CCCN(c1nc(-c2nc(N)cc(N)n2)cs1)c1cc(-c2ccc(S(=O)(=O)N3CCN(C)CC3)cc2)ccc1C [OR0607, 2-(2-((4-Methyl-4′-((4-methylpiperazin-1-yl)sulfonyl)-[1,1′-biphenyl]-3-yl)(propyl)amino)thiazol-4-yl)pyrimidine-4,6-diamine]",–,–
21.6 ± 0.4 °,2.8 ± 1.3 nM,"CCCN(c1nc(-c2nc(N)cc(N)n2)cs1)c1cc(-c2ccc(S(=O)(=O)N3CCN(C)CC3)nc2C)ccc1C [OR0653, 2-(2-((2-Methyl-5-(2-methyl-6-((4-methylpiperazin-1-yl)sulfonyl)pyridin-3-yl)phenyl)(propyl)amino)thiazol-4-yl)pyrimidine-4,6-diamine]",–,–
19.2 ± 0.1 °,7.3 ± 2.5 nM,"CCCN(c1nc(-c2nc(N)cc(N)n2)cs1)c1cc(-c2cnc(S(=O)(=O)N3CCN(C)CC3)cc2C)ccc1C [OR0652, 2-(2-((2-Methyl-5-(4-methyl-6-((4-methylpiperazin-1-yl)sulfonyl)pyridin-3-yl)phenyl)(propyl)amino)thiazol-4-yl)pyrimidine-4,6-diamine]",–,–
22.4 ± 0.1 °,11.3 ± 2.1 nM,"CCCN(c1nc(-c2nc(N)cc(N)n2)cs1)c1cc(-c2ccc(S(=O)(=O)N3CCNCC3)nc2C(F)(F)F)ccc1C [OR0658, 2-(2-((2-Methyl-5-(6-(piperazin-1-ylsulfonyl)-2-(trifluoromethyl)pyridin-3-yl)phenyl)(propyl)amino)thiazol-4-yl)pyrimidine-4,6-diamine]",–,–
22.0 ± 0.4 °,1.6 ± 0.9 nM,"CCCN(c1nc(-c2nc(N)cc(N)n2)cs1)c1cc(-c2ccc(S(=O)(=O)N3CCN(C)CC3)nc2C(F)(F)F)ccc1C [OR0657, 2-(2-((2-Methyl-5-(6-((4-methylpiperazin-1-yl)sulfonyl)-2-(trifluoromethyl)pyridin-3-yl)phenyl)(propyl)amino)thiazol-4-yl)pyrimidine-4,6-diamine]",–,–
–,–,"Cc1cn([C@H]2C[C@H](O)[C@@H](CO)O2)c(=O)[nH]c1=O [dT, 1-[(2R,4S,5R)-4-Hydroxy-5-(hydroxymethyl)oxolan-2-yl]-5-methylpyrimidine-2,4(1H,3H)-dione, reference compound]",scarcely reduced the disease burden,~26 days
18.3 ± 0.4 °,610 ± 153 nM,"CCCN(c1nc(-c2nc(N)cc(N)n2)cs1)c1cc(-c2cnc(OC)cc2C(F)(F)F)ccc1C [OR0654, 2-(2-((5-(6-Methoxy-4-(trifluoromethyl)pyridin-3-yl)-2-methylphenyl)(propyl)amino)thiazol-4-yl)pyrimidine-4,6-diamine]",–,–
–,–,"CCCN(c1nc(-c2nc(N)cc(N)n2)cs1)c1cc(-c2ccc(S(=O)(=O)N3CCN(C)CC3)cc2C(F)(F)F)ccc1C [OR0642, 2-(2-((4-Methyl-4′-((4-methylpiperazin-1-yl)sulfonyl)-2′-(trifluoromethyl)-[1,1′-biphenyl]-3-yl)(propyl)amino)thiazol-4-yl)pyrimidine-4,6-diamine]",did not show any anti-proliferative effect,~26 days
14.9 ± 0.2 °,8310 ± 1870 nM,"Cc1ccc(Br)cc1N(CC(C)C)c1nc(-c2nc(N)cc(N)n2)cs1 [OR0637-1, 2-(2-((5-Bromo-2-methylphenyl)(isobutyl)amino)thiazol-4-yl)pyrimidine-4,6-diamine]",–,–
13.9 ± 0.2 °,11300 ± 1370 nM,"CCCN(c1nc(-c2nc(N)cc(N)n2)cs1)c1cc(Br)ccc1C [OR0652-1, 2-(2-((5-Bromo-2-methylphenyl)(propyl)amino)thiazol-4-yl)pyrimidine-4,6-diamine]",–,–
19.0 ± 0.0 °,251 ± 36 nM,"CCCN(c1nc(-c2nc(N)cc(N)n2)cs1)c1cc(-c2cnc(O)cc2C(F)(F)F)ccc1C [OR0655, 2-(2-((5-(6-Hydroxy-4-(trifluoromethyl)pyridin-3-yl)-2-methylphenyl)(propyl)amino)thiazol-4-yl)pyrimidine-4,6-diamine]",–,–
21.3 ± 0.8 °,3.8 ± 2 nM,"CCCN(c1nc(-c2nc(N)cc(N)n2)cs1)c1cc(-c2cnc(S(=O)(=O)N3CCN(C)CC3)cc2C(F)(F)F)ccc1C [OR0656, 2-(2-((2-Methyl-5-(6-((4-methylpiperazin-1-yl)sulfonyl)-4-(trifluoromethyl)pyridin-3-yl)phenyl)(propyl)amino)thiazol-4-yl)pyrimidine-4,6-diamine]",–,–

SMILES,AFFINITY ASSAY +ΔTm (°) (dCK),IC50 [1],effect on disease progression / disease burden (bioluminescence) (CCRF-CEM T-ALL cell line),day around which most of the mice died (CCRF-CEM T-ALL cell line)
"CCCN(c1nc(-c2nccc(N)n2)cs1)c1cc(-c2ccc(OCC(=O)N3CCN(C)CC3)cc2)ccc1C [OR0597, 4-(4-Aminopyrimidin-2-yl)-N-(4-methyl-4′-(2-(4-methylpiperazin-1-yl)-2-oxoethoxy)-[1,1′-biphenyl]-3-yl)-N-propylthiazol-2-amine]",17.1 ± 0.1 °,–,–,–
"CCCN(c1nc(-c2nc(N)cc(N)n2)cs1)c1cc(-c2ccc(OCC(=O)N3CCN(C)CC3)nc2)ccc1C [OR0630, 2-((5-(3-((4-(4,6-Diaminopyrimidin-2-yl)thiazol-2-yl)(propyl)amino)-4-methylphenyl)pyridin-2-yl)oxy)-1-(4-methylpiperazin-1-yl)ethan-1-one]",17.4 ± 0.2 °,–,–,–
"CCCN(c1nc(-c2nc(N)cc(N)n2)cs1)c1cc(-c2ccc(S(=O)(=O)N3CCN(CC(=O)O)CC3)cc2)ccc1C [OR0649, 2-(4-((3′-((4-(4,6-Diaminopyrimidin-2-yl)thiazol-2-yl)(propyl)amino)-4′-methyl-[1,1′-biphenyl]-4-yl)sulfonyl)piperazin-1-yl)acetic acid]",17.6 ± 1.3 °,13400 ± 546 nM,–,–
"CCCN(c1nc(-c2nc(N)cc(N)n2)cs1)c1cc(-c2ccc(S(=O)(=O)N3CCN(C)CC3)nc2)ccc1C [OR0627, 2-(2-((2-Methyl-5-(6-((4-methylpiperazin-1-yl)sulfonyl)pyridin-3-yl)phenyl)(propyl)amino)thiazol-4-yl)pyrimidine-4,6-diamine]",17.5 ± 0.4 °,48 ± 17 nM,–,–
"Cc1ccc(-n2cc(CNS(C)(=O)=O)nn2)cc1N(CC(C)C)c1nc(-c2nc(N)cc(N)n2)cs1 [OR0609, N-((1-(3-((4-(4,6-Diaminopyrimidin-2-yl)thiazol-2-yl)(isobutyl)amino)-4-methylphenyl)-1H-1,2,3-triazol-4-yl)methyl) methanesulfonamide]",13.5 ± 0.7 °,3180 ± 611 nM,–,–
